{
  "source": "patent US20140213576A1",
  "about": "“NOVEL COMPOUND USEFUL FOR THE TREATMENT OF DEGENERATIVE AND INFLAMMATORY DISEASES” (GALAPAGOS NV, priority 2013, published 2014)",
  "key": {"[1]": {"molecular_target": "T1, Recombinant human JAK1 (catalytic domain, amino acids 866-1154) (Homo sapiens, UniProt P23458)", "T1 construct": "Recombinant human JAK1 (catalytic domain, amino acids 866-1154; catalog number PV4774); purchased Invitrogen PV4774", "T1 sequence (P23458 866-1154)": "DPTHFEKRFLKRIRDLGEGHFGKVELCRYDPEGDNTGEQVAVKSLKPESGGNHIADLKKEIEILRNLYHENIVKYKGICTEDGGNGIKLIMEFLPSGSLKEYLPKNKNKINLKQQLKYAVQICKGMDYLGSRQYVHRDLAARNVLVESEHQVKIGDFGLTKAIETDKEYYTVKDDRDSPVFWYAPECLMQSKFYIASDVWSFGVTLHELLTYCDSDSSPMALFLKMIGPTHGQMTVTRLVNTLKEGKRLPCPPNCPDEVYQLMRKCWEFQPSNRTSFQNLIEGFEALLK", "test": "JAK1 Ulight-JAK1 peptide assay", "format": "biochemical", "description": "Recombinant human JAK1 (catalytic domain, amino acids 866-1154; catalog number PV4774) was purchased from Invitrogen. 1 ng of JAK1 was incubated with 20 nM Ulight-JAK1(tyr1023) peptide (Perkin Elmer catalog number TRF0121) in kinase reaction buffer (25 mM MOPS pH6.8, 0.01% Brij-35, 5 mM MgCl2, 2 mM DTT, 7 μM ATP) with or without 4 μL containing test compound or vehicle (DMSO, 1% final concentration), in a total volume of 20 μL, in a white 384 Opti plate (Perkin Elmer, catalog number 6007290). After 60 min at room temperature, reactions were stopped by adding 20 μL/well of detection mixture (1× detection buffer (Perkin Elmer, catalog number CR97-100C), 0.5 nM Europium-anti-phosphotyrosine (PT66) (Perkin Elmer, catalog number AD0068), 10 mM EDTA). Readout is performed using the Envision with excitation at 320 nm and measuring emission at 615 nm (Perkin Elmer). Kinase activity was calculated by subtracting relative fluorescence units (RFU) obtained in the presence of a positive control inhibitor (10 μM staurosporine) from RFU obtained in the presence of vehicle. The ability of a test compound to inhibit this activity was determined as:\nPercentage inhibition=((RFU determined for sample with test compound present−RFU determined for sample with positive control inhibitor) divided by (RFU determined in the presence of vehicle−RFU determined for sample with positive control inhibitor))*100.\nDose dilution series were prepared for the compounds enabling the testing of dose-response effects in the JAK1 assay and the calculation of the IC50 for the compound. Each compound is routinely tested at concentration of 20 μM followed by a ⅕ serial dilution, 10 points in a final concentration of 1% DMSO. […] The data are expressed as the average IC50 from the assays±standard error of the mean."}, "[2]": {"test_system": "Collagen Induced Arthritis (CIA)", "test": "Rat CIA model", "format": "in vivo", "settings": "p.o., therapeutic dosing day 16 to day 30", "description": "Completed Freund's adjuvant (CFA) and incomplete Freund's adjuvant (IFA) were purchased from Difco. Bovine collagen type II (CII), lipopolysaccharide (LPS), and Enbrel was obtained from Chondrex (Isle d'Abeau, France); Sigma (P4252, L'Isle d'Abeau, France), […] (25 mg injectable syringe, France) Acros Organics (Palo Alto, Calif.), respectively. All other reagents used were of reagent grade and all solvents were of analytical grade. Dark Agouti rats (male, 7-8 weeks old) were obtained from Harlan Laboratories (Maison-Alfort, France). Rats were kept on a 12 h light/dark cycle (0700-1900). Temperature was maintained at 22° C., and food and water were provided ad libitum. […] A compound of interest was typically tested at 5 doses, e.g. 1, 2, 3, 5, and 10 mg/kg, p.o. Arthritis is scored according to the method of Khachigian 2006, Lin et al 2007 and Nishida et al. 2004). […] To permit the meta-analysis of multiple studies the clinical score values were normalised as follows: AUC of clinical score (AUC score): The area under the curve (AUC) from day 1 to day 14 was calculated for each individual rat. The AUC of each animal was divided by the average AUC obtained for the vehicle in the study from which the data on that animal was obtained and multiplied by 100 (i.e. the AUC was expressed as a percentage of the average vehicle AUC per study). […]"}, "JAK1": {"molecular_target": "T2, JAK1 (Homo sapiens, UniProt P23458)", "T2 construct": "Recombinant human JAK1 (catalytic domain, amino acids 866-1154; catalog number PV4774); purchased Invitrogen PV4774", "T2 sequence (P23458 866-1154)": "as above", "test": "JAK1 Ki determination assay", "format": "biochemical", "settings": "Lineweaver-Burk, varying ATP, Ulight-JAK-1 peptide; read-out: Ki against JAK1", "description": "For the determination of Ki, different amounts of compound were mixed with the enzyme and the enzymatic reaction was followed as a function of ATP concentration. The Ki was determined by means of double reciprocal plotting of Km vs compound concentration (Lineweaver-Burk plot). 1 ng of JAK1 (Invitrogen, PV4774) is used in the assay. The substrate was 50 nM Ulight-JAK-1 (Tyr1023) Peptide (Perkin Elmer, TRF0121) The reaction is performed in 25 mM MOPS pH 6.8, 0.01%, 2 mM DTT, 5 mM MgCl2 Brij-35 with varying concentrations of ATP and compound. Phosphorylated substrate was measured using an Eu-labeled anti-phosphotyrosine antibody PT66 (Perkin Elmer, AD0068) as described in 1.1.2. Readout was performed on the envision (Perkin Elmer) with excitation at 320 nm and emission followed at 615 nm and 665 nm."}},
  "note": "“And” between values parts separate entries of the source, which are not always exact repeats. Equal entries are not always repeated.",
  "data": [
    {"smiles": "CCc1cc(C2CN(S(C)(=O)=O)C2)ncc1N(C)c1cc2c(cn1)ncn2C", "note": "[Compound 1, [4-Ethyl-6-(1-methanesulfonyl-azetidin-3-yl)-pyridin-3-yl]-methyl-(1-methyl-1H-imidazo[4,5-d]pyridin-6-yl)-amine]", "values": [
      {"measurement": "selectivity for JAK1 vs the other JAK family members (JAK2, JAK3, and TYK2)", "setting": "[1]", "value": "at least 10 fold"},
      {"measurement": "IC50", "setting": "[1]; Ulight-JAK1(tyr1023) peptide, 7 μM ATP, individual determinations, read-out: IC50 against JAK1", "value": "6.59 nM and 7.68 nM and 12.9 nM and 4.47 nM and 10.2 nM and 9.11 nM and 5.42 nM and 8.37 nM and 9.43 nM and 6.94 nM"},
      {"measurement": "JAK1 selectivity vs JAK2", "setting": "[1]; vs JAK2", "value": "> 15", "unit": "fold"},
      {"measurement": "JAK1 selectivity vs JAK3", "setting": "[1]; vs JAK3", "value": "> 70", "unit": "fold"},
      {"measurement": "JAK1 selectivity vs TYK2", "setting": "[1]; vs TYK2", "value": "> 80", "unit": "fold"},
      {"measurement": "dose from which statistically significant efficacy was displayed", "setting": "[2]", "value": "≥ 3", "unit": "mg/kg"},
      {"measurement": "Ki", "setting": "JAK1", "value": 9.21, "unit": "nM"}
    ]}
  ]
}
